According to patent US10479780B2, “Aminopyrazole derivatives” (Chugai Seiyaku Kabushiki Kaisha, priority 2015, dated 2019):

Legend:
Format in all cases: biochemical
human Lck enzyme = biological target: T1, human Lck enzyme (Homo sapiens, UniProt P06239); experiment: Lck enzyme inhibitory activity (time-resolved fluorometry, biotinylated peptide phosphorylation); details: biotinylated peptide phosphorylation, read-out: LCK_IC50
T1 construct: purchased Carna Biosciences, Inc. 08-170
Outline: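 Readout pairs a europium cryptate-labelled anti-phosphotyrosine antibody with XL665-streptavidin, measured by time-resolved fluorescence. IC50 derived from percent inhibition against untreated controls.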

human Yes1 enzyme = biological target: T2, human Yes1 enzyme (Homo sapiens, UniProt P07947); experiment: Yes1 enzyme inhibitory activity (time-resolved fluorometry, biotinylated peptide phosphorylation); details: biotinylated peptide phosphorylation, read-out: YES_IC50
T2 construct: made in house
Outline: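 Inhibition was expressed against a compound-free control to give IC50, using TR-FRET read-out (Eu-cryptate anti-pTyr antibody, streptavidin-XL665).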

human Src enzyme = biological target: T3, human Src enzyme (Homo sapiens, UniProt P12931); experiment: Src enzyme inhibitory activity (time-resolved fluorometry, biotinylated peptide phosphorylation); details: biotinylated peptide phosphorylation, read-out: SRC_IC50
T3 construct: purchased Carna Biosciences, Inc. 08-173
Outline: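 Compounds were tested for blocking tyrosine phosphorylation of a biotinylated peptide substrate by recombinant human Src. Phosphorylated product was quantified by time-resolved fluorometry using europium cryptate and XL665 conjugates, and IC50 was calculated against the compound-free control.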

T1 sequence (P06239 whole entry): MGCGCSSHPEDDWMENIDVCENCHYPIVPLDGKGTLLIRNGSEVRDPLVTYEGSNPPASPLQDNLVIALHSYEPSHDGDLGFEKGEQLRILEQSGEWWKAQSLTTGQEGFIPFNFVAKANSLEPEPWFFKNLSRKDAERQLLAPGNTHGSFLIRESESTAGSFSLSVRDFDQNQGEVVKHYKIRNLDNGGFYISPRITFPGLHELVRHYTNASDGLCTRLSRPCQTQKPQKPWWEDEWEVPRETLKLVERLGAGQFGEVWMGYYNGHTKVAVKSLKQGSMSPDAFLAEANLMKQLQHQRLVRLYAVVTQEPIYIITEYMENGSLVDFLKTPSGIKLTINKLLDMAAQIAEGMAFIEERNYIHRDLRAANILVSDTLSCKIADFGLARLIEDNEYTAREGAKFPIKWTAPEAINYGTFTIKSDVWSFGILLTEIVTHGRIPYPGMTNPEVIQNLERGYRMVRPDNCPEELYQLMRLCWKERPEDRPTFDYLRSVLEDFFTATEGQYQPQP
T3 sequence (P12931 whole entry): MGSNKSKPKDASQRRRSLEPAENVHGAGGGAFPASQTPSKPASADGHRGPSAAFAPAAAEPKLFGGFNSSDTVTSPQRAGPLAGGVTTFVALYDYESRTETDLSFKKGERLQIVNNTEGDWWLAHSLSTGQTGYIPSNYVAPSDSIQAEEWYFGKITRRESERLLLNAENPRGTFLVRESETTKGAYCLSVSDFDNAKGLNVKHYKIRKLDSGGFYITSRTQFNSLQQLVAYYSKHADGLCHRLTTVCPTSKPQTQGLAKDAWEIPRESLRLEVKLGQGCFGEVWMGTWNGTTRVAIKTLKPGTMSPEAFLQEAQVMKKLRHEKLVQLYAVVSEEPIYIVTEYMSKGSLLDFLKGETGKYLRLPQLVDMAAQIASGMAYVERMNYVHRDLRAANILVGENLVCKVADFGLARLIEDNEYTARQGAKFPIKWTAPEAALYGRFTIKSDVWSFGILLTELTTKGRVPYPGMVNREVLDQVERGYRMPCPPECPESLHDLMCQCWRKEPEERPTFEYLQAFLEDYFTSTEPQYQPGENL
T2 sequence (P07947 whole entry): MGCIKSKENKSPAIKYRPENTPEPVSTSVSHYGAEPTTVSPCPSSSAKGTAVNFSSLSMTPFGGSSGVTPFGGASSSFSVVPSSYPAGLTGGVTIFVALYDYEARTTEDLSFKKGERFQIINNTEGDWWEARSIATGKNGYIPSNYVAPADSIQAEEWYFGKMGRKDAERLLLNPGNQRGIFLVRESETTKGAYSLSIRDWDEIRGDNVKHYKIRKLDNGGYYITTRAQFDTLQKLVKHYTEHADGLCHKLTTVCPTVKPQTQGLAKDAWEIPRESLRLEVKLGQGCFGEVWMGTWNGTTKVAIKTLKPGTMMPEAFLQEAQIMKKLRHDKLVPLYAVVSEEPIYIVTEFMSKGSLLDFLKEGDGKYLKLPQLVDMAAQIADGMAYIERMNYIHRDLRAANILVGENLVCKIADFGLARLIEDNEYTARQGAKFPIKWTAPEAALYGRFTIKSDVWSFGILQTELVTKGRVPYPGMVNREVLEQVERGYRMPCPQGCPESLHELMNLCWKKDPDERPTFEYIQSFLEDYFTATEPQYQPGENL

| IC50 (human Lck enzyme) [nM] | IC50 (human Yes1 enzyme) [nM] | IC50 (human Src enzyme) [nM] | Structure (SMILES) |
| --- | --- | --- | --- |
| 2.5 | 0.58 | 17 | Cc1cc(Oc2c(F)cccc2F)ncc1-n1ncc(C(=O)c2cc3cc(OCC(F)F)c(N4C(=O)NC(C)(C)C4=O)cc3[nH]2)c1N [Example 4-23-032, 3-{2-{5-amino-1-[6-(2,6-difluorophenoxy)-4-methylpyridin-3-yl]pyrazole-4-carbonyl}-5-(2,2-difluoroethoxy)-1H-indol-6-yl}-5,5-dimethylimidazolidine-2,4-dione] |
| 2.1 | 0.5 | 6.1 | Cc1cc(Oc2ccccc2F)ccc1-n1ncc(C(=O)c2cc3cc(OCC(F)F)c(N4C(=O)NC(C)(C)C4=O)cc3[nH]2)c1N [Example 4-23-033, 3-[2-[5-amino-1-[4-(2-fluorophenoxy)-2-methylphenyl]pyrazole-4-carbonyl]-5-(2,2-difluoroethoxy)-1H-indol-6-yl]-5,5-dimethylimidazolidine-2,4-dione] |
| 6.7 | 1.5 | 54 | Cc1cc(Oc2c(F)cccc2F)ncc1-n1ncc(C(=O)c2cc3cc(OC(F)F)c(N4C(=O)NC(C)(C)C4=O)cc3[nH]2)c1N [Example 4-23-034, 3-[2-[5-amino-1-[6-(2,6-difluorophenoxy)-4-methylpyridin-3-yl]pyrazole-4-carbonyl]-5-(difluoromethoxy)-1H-indol-6-yl]-5,5-dimethylimidazolidine-2,4-dione] |
| 7 | 0.63 | 30 | Cc1cc(Oc2ccccc2F)ccc1-n1ncc(C(=O)c2cc3cc(OC(F)F)c(N4C(=O)NC(C)(C)C4=O)cc3[nH]2)c1N [Example 4-23-035, 3-[2-[5-amino-1-[4-(2-fluorophenoxy)-2-methylphenyl]pyrazole-4-carbonyl]-5-(difluoromethoxy)-1H-indol-6-yl]-5,5-dimethylimidazolidine-2,4-dione] |
| 6.4 | 1 | 31 | Cc1cc(Oc2c(F)cccc2F)ncc1-n1ncc(C(=O)c2cc3cc(OCC(F)F)c(N4C(=O)C(C)(C)NC4=S)cc3[nH]2)c1N [Example 4-23-036, 3-{2-{5-amino-1-[6-(2,6-difluorophenoxy)-4-methylpyridin-3-yl]pyrazole-4-carbonyl}-5-(2,2-difluoroethoxy)-1H-indol-6-yl}-5,5-dimethyl-2-sulfanylideneimidazolidin-4-one] |
| 6.7 | 0.76 | 12 | Cc1cc(Oc2ccccc2F)ccc1-n1ncc(C(=O)c2cc3cc(OCC(F)F)c(N4C(=O)C(C)(C)NC4=S)cc3[nH]2)c1N [Example 4-23-037, 3-[2-[5-amino-1-[4-(2-fluorophenoxy)-2-methylphenyl]pyrazole-4-carbonyl]-5-(2,2-difluoroethoxy)-1H-indol-6-yl]-5,5-dimethyl-2-sulfanylideneimidazolidin-4-one] |
| 10 | 1.2 | 71 | Cc1cc(Oc2c(F)cccc2F)ncc1-n1ncc(C(=O)c2cc3cc(OC(F)F)c(N4C(=O)C(C)(C)NC4=S)cc3[nH]2)c1N [Example 4-23-038, 3-[2-[5-amino-1-[6-(2,6-difluorophenoxy)-4-methylpyridin-3-yl]pyrazole-4-carbonyl]-5-(difluoromethoxy)-1H-indol-6-yl]-5,5-dimethyl-2-sulfanylideneimidazolidin-4-one] |
| 16 | 0.81 | 60 | Cc1cc(Oc2ccccc2F)ccc1-n1ncc(C(=O)c2cc3cc(OC(F)F)c(N4C(=O)C(C)(C)NC4=S)cc3[nH]2)c1N [Example 4-23-039, 3-[2-[5-amino-1-[4-(2-fluorophenoxy)-2-methylphenyl]pyrazole-4-carbonyl]-5-(difluoromethoxy)-1H-indol-6-yl]-5,5-dimethyl-2-sulfanylideneimidazolidin-4-one] |
| 36 | 3.6 | 110 | Cc1cc(Oc2ccccc2F)ccc1-n1ncc(C(=O)c2cc3cc(OC(F)F)c(NS(=O)(=O)C4CC4)cc3[nH]2)c1N [Example 4-24-001, N-[2-[5-amino-1-[4-(2-fluorophenoxy)-2-methylphenyl]pyrazole-4-carbonyl]-5-(difluoromethoxy)-1H-indol-6-yl]cyclopropanesulfonamide] |
| 10 | 1.6 | 35 | Cc1cc(Oc2ccccc2F)ccc1-n1ncc(C(=O)c2cc3cc(OC(F)F)c(NS(C)(=O)=O)cc3[nH]2)c1N [Example 4-24-002, N-[2-[5-amino-1-[4-(2-fluorophenoxy)-2-methylphenyl]pyrazole-4-carbonyl]-5-(difluoromethoxy)-1H-indol-6-yl]methanesulfonamide] |
| 25 | 2.7 | 55 | Cc1cc(Oc2ccccc2F)ccc1-n1ncc(C(=O)c2cc3cc(OC(F)F)c(NS(=O)(=O)CCCF)cc3[nH]2)c1N [Example 4-24-003, N-[2-[5-amino-1-[4-(2-fluorophenoxy)-2-methylphenyl]pyrazole-4-carbonyl]-5-(difluoromethoxy)-1H-indol-6-yl]-3-fluoropropane-1-sulfonamide] |
| 17 | 3.1 | 41 | Cc1cc(Oc2ccccc2F)ccc1-n1ncc(C(=O)c2cc3cc(OC(F)F)c(NS(=O)(=O)CCC(F)F)cc3[nH]2)c1N [Example 4-24-004, N-[2-[5-amino-1-[4-(2-fluorophenoxy)-2-methylphenyl]pyrazole-4-carbonyl]-5-(difluoromethoxy)-1H-indol-6-yl]-3,3-difluoropropane-1-sulfonamide] |
| 47 | 4.7 | 240 | Cc1cc(Oc2ccccc2F)cc(F)c1-n1ncc(C(=O)c2cc3cc(OC(F)F)c(NS(=O)(=O)C4CC4)cc3[nH]2)c1N [Example 4-24-005, N-[2-[5-amino-1-[2-fluoro-4-(2-fluorophenoxy)-6-methylphenyl]pyrazole-4-carbonyl]-5-(difluoromethoxy)-1H-indol-6-yl]cyclopropanesulfonamide] |
| 51 | 4.5 | 200 | Cc1cc(Oc2ccccc2F)cc(F)c1-n1ncc(C(=O)c2cc3cc(OC(F)F)c(NS(=O)(=O)CCCF)cc3[nH]2)c1N [Example 4-24-006, N-[2-[5-amino-1-[2-fluoro-4-(2-fluorophenoxy)-6-methylphenyl]pyrazole-4-carbonyl]-5-(difluoromethoxy)-1H-indol-6-yl]-3-fluoropropane-1-sulfonamide] |
| 61 | 4 | 230 | Cc1cc(Oc2ccccc2F)ncc1-n1ncc(C(=O)c2cc3cc(OC(F)F)c(NS(=O)(=O)C4CC4)cc3[nH]2)c1N [Example 4-24-007, N-[2-[5-amino-1-[6-(2-fluorophenoxy)-4-methylpyridin-3-yl]pyrazole-4-carbonyl]-5-(difluoromethoxy)-1H-indol-6-yl]cyclopropanesulfonamide] |
| 19 | 2.1 | 99 | Cc1cc(Oc2ccccc2F)ncc1-n1ncc(C(=O)c2cc3cc(OC(F)F)c(NS(C)(=O)=O)cc3[nH]2)c1N [Example 4-24-008, N-[2-[5-amino-1-[6-(2-fluorophenoxy)-4-methylpyridin-3-yl]pyrazole-4-carbonyl]-5-(difluoromethoxy)-1H-indol-6-yl]methanesulfonamide] |
| 39 | 3.6 | 120 | Cc1cc(Oc2ccccc2F)ncc1-n1ncc(C(=O)c2cc3cc(OC(F)F)c(NS(=O)(=O)CCCF)cc3[nH]2)c1N [Example 4-24-009, N-[2-[5-amino-1-[6-(2-fluorophenoxy)-4-methylpyridin-3-yl]pyrazole-4-carbonyl]-5-(difluoromethoxy)-1H-indol-6-yl]-3-fluoropropane-1-sulfonamide] |
| 36 | 4.3 | 150 | Cc1cc(Oc2c(F)cccc2F)ncc1-n1ncc(C(=O)c2cc3cc(OC(F)F)c(NS(=O)(=O)C4CC4)cc3[nH]2)c1N [Example 4-24-010, N-[2-[5-amino-1-[6-(2,6-difluorophenoxy)-4-methylpyridin-3-yl]pyrazole-4-carbonyl]-5-(difluoromethoxy)-1H-indol-6-yl]cyclopropanesulfonamide] |
| 13 | 2.3 | 64 | Cc1cc(Oc2c(F)cccc2F)ncc1-n1ncc(C(=O)c2cc3cc(OC(F)F)c(NS(C)(=O)=O)cc3[nH]2)c1N [Example 4-24-011, N-[2-[5-amino-1-[6-(2,6-difluorophenoxy)-4-methylpyridin-3-yl]pyrazole-4-carbonyl]-5-(difluoromethoxy)-1H-indol-6-yl]methanesulfonamide] |
| 28 | 4 | 100 | Cc1cc(Oc2c(F)cccc2F)ncc1-n1ncc(C(=O)c2cc3cc(OC(F)F)c(NS(=O)(=O)CCCF)cc3[nH]2)c1N [Example 4-24-012, N-[2-[5-amino-1-[6-(2,6-difluorophenoxy)-4-methylpyridin-3-yl]pyrazole-4-carbonyl]-5-(difluoromethoxy)-1H-indol-6-yl]-3-fluoropropane-1-sulfonamide] |
| 12 | 1.6 | 40 | Cc1cc(Oc2ccccc2F)ccc1-n1ncc(C(=O)c2cc3cc(N4CCOCC4)c(NS(C)(=O)=O)cc3[nH]2)c1N [Example 4-24-013, N-[2-[5-amino-1-[4-(2-fluorophenoxy)-2-methylphenyl]pyrazole-4-carbonyl]-5-morpholin-4-yl-1H-indol-6-yl]methanesulfonamide] |
